# From patent US20090176786A1, “Benzoylurea Compounds and Use Thereof” (priority 2005, published 2009)
# Legend:
# Assay type in all cases: in vivo
# Plutella xylostella [1] = experiment: Test Example 1: spray on cabbage, dead pest rate of Plutella xylostella larvae; conditions: 500 ppm spray solution, 20 ml/cup on cabbage, 5 second-instar larvae, after 5 days; for pest or weed control at 500 ppm: Plutella xylostella, 120 h
# Procedure: Ten parts of the present compound (1), (2), (5) to (19), (21) to (34), (36) to (61), (63), (64), (68) to (71), (74), (76) to (78), (82) to (83), (89), (93), (94), (97), (99), (102) to (110), (111), (115), (116) (117) to (120) or (123) to (134); 35 parts of white carbon containing 50 parts of polyoxyethylene alkyl ether sulfate ammonium salt; and 55 parts of water were mixed, and finely ground by a wet grinding method to obtain a 10% flowable agent. The obtained flowable agent was diluted with water so that the active ingredient concentration became to 500 ppm to prepare a spray solution for test.
# Cabbages were planted in polyethylene cups, and grown until the third true leaf or the fourth true leaf was developed. The spray solution for test prepared above was sprayed at a rate of 20 ml/cup on the cabbages.
# After the pesticidal solution sprayed onto the cabbages was dried, 5 second-instar larvae of Plutella xylostella were put on the cabbages. After 5 days, the number of dead Plutella xylostella was examined, and a dead pest rate was calculated by the following equation:
# (§1) Dead pest rate(%)=(the number of dead pests/the number of tested pests)×100
# Plutella xylostella [2] = experiment: Test Example 2: cabbage root immersion (systemic), dead pest rate of Plutella xylostella larvae; conditions: Plutella xylostella, 120 h, root immersion 5 days, 10 second-instar larvae, after 5 days at 24° C.; for pest or weed control at 25 ppm: test concentration 25 ppm
# Procedure: In 0.25 mL of a mixture solution of Sorgen TW-20 (manufactured by Daiichi Industries Pharmaceuticals, Co., Ltd.) and acetone (mixture volume ratio; Sorgen TW-20:acetone=1:19), 2.5 mg of the present compound (1), (2), (3), (4), (7), (10), (11), (12), (16), (18), (19), (20), (21), (22), (25), (30), (36), (37), (41), (42), (52), (54), (56), (57), (60), (62), (105) or (109) was dissolved. The solution was diluted with ion-exchanged water so that the active ingredient concentration became to a predetermined concentration to prepare a pesticidal solution for test of the test compound. The root part of cabbages in the fourth leaf period were washed with tap water to remove soils, and then immersed in the pesticidal solution for test. After 5 days from immersion of the root part, the root part was removed, and the leaves and stems were put in a cup (volume; 180 mL). In the cup 10 second-instar larvae of Plutella xylostella were released, and the cup was stored at 24° C. After 5 days, the number of dead pests was counted, and the dead pest rate was calculated by the following equation:
# as §1
# The test concentrations of the other present compounds were 25 ppm.
# [3] = test system: Frankliniella occidentalis; experiment: Test Example 4: spray on cucumber, control value against Frankliniella occidentalis larvae; conditions: 168 h, test concentration 50 ppm, spray 20 ml/cup on cucumber, 30 larvae, seven days after spraying
# Procedure: The obtained preparation was diluted with water so that the active ingredient concentration became to a predetermined concentration to prepare a spray solution for test. […] were planted in polyethylene cups, and were grown until the first true leaf was developed. The spray solution for test prepared above was sprayed at the rate of 20 ml/cup on the cucumber. After the pesticidal solution sprayed onto the cucumber was dried, the first true leaf was cut off and then placed on a filter paper (diameter: 70 mm) containing water in a polyethylene cup (diameter: 110 mm). On the cucumber leaf, 30 larvae of Frankliniella occidentalis were released, and the polyethylene cup was capped. Seven days after spraying, the number of pests surviving on the cucumber leaf was counted, and a control value was calculated by the following equation: Control value(%)={1−(Cb×Tai)/(Cai×Tb)}×100 wherein, each symbol has following meaning: Cb: the number of pests before treatment in a non-treated area Cai: the number of pests at the time of observation in a non-treated area Tb: the number of pests before treatment in a treated-area Tai: the number of pests at the time of observation in a treated-area. […] The test concentrations of the other present compounds were 50 ppm.
# Plutella xylostella [4] = experiment: Test Example 9: spray on plants, cut aerial part, dead pest rate of third-instar Plutella xylostella larvae; conditions: 120 h, spray 20 ml/cup, 10 third-instar larvae, after 5 days at 25° C.; for pest or weed control at 12.5 ppm: test concentration 12.5 ppm; for pest or weed control at 50 ppm: test concentration 50 ppm; for pest or weed control at 200 ppm: test concentration 200 ppm
# Procedure: In a mixed solution (0.1 mL) of xylene and N,N-dimethylformamide (mixture volume ratio; xylene:N,N-dimethylformamide=1:1), 30 mg of the present compounds (3), (4), (20), (35), (62), (81), (100), (101) or (112) was dissolved, and further a mixed solution (0.1 mL) of xylene and SORPOL 3005X (manufactured by Toho Chemcials, Co., Ltd.) (mixture volume ratio; xylene:SORPOL 3005X=1:9) was added thereto. The solution was diluted with ion-exchanged water so that the active ingredient became to the predetermined concentration to prepare a pesticidal solution for test of the test compound.
# […] were planted in polyethylene cups, and grown until the third true leaf or the fourth true leaf was developed. The spray solution for test prepared above was sprayed at a rate of 20 ml/cup on the cabbages.
# After the pesticidal solution for test was dried, the aerial part of the cabbage was cut, and put into a polyethylene cup having a volume of 100 ml together with 10 third-instar larvae of Plutella xylostella, and stored at 25° C. After 5 days, the number of dead pests was countered, and the dead pest rate was calculated by the following equation:
# as §1
# Test concentrations of the others were 200 ppm.
# Spondoptela litura = experiment: Test Example 3: treated artificial diet (Insecta LF), dead pest rate of Spondoptela litura larvae; conditions: 2 mL on Insecta LF diet, 5 fourth-instar larvae, after 6 days; for pest or weed control at 500 ppm: 144 h
# Description: Ten parts of the present compound (1) to (5), (7) to (13), (18) to (33), (35) to (49), (52) to (56), (58) to (61), (71), (73) to (77), (79), (80), (82), (83), (93), (94), (95), (96), (97), (100) to (109), (111), (112), (115), (117), (119), (121), or (123) to (133), 35 parts of white carbon containing 50 parts of polyoxyethylene alkyl ether sulfate ammonium salt, and 55 parts of water were mixed, and finely ground by a wet grinding method to obtain a preparation. The obtained preparation was diluted with water so that the active ingredient concentration became to 500 ppm to prepare a pesticidal solution for test. On the bottom of a polyethylene cup having a diameter of 5.5 cm, a filter paper having a diameter of 5.5 cm was placed, on which Insecta LF (Nippon Agriculture Industries, Co., Ltd.) sliced in a thickness of 6 mm and further cut half was laid, and to which 2 mL of the above-described pesticidal solution for test was added. After air-dried, 5 fourth-instar larvae of Spondoptela litura were released in the cup, and the cup was capped. After 6 days, the number of dead pests was counted, and the dead pest rate was calculated by the following equation:
# as §1
# Plutella xylostella [5] = experiment: Test Example 6: cabbage root immersion, Plutella xylostella, against comparative compound C; conditions: 100 ppm; root immersion 5 days; 10 second-instar larvae; after 5 days at 24° C.
# Procedure: (§2) In 0.25 mL of a mixed solution of Tween-20 and acetone (mixture volume ratio: Tween-20:acetone=1:19), 2.5 mg of the present compound (93) or comparative compound C was dissolved. The solution was diluted with ion-exchanged water so that the active ingredient concentration became to the predetermined concentration (100 ppm) to prepare a pesticidal solution for test of the test compound. The root part of cabbages in the fourth leaf period was washed with tap water to remove soils, and then immersed in the pesticidal solution for test. After 5 days from immersion of the root part, the root part was removed, and the leaves and stems were put in a polyethylene cup (volume; 180 mL). In the cup 10 second-instar larvae of Plutella xylostella were released, and the cup was stored at 24° C. After 5 days, the number of dead pests was countered, and the dead pest rate was calculated by the following equation:
# as §1
# Plutella xylostella [6] = experiment: Test Example 7: cabbage root immersion, Plutella xylostella, against comparative compound D; conditions: 25 ppm; root immersion 5 days; 10 second-instar larvae; after 5 days at 24° C.
# Procedure: as §2, with “compound (94)” for “compound (93)”, “compound D” for “compound C”, “concentration (25” for “concentration (100”, “a ice cream” for “a polyethylene”
# as §1
structure (smiles),measurement,setting,value
CN(C(=O)NC(=O)c1c(F)cccc1F)c1ccc(SC(F)(F)F)cc1F [(1)],pest or weed control at 500 ppm,Plutella xylostella [1],100%
same,pest or weed control at 25 ppm,Plutella xylostella [2],100%
same,pest or weed control at 50 ppm,[3],100%
CN(C(=O)NC(=O)c1c(F)cccc1F)c1ccc(SC(F)(F)C(F)F)cc1F [(2)],pest or weed control at 500 ppm,Plutella xylostella [1],100%
same,pest or weed control at 25 ppm,Plutella xylostella [2],100%
same,pest or weed control at 50 ppm,[3],100%
CN(C(=O)NC(=O)c1c(F)cccc1Cl)c1ccc(SC(F)(F)F)cc1F [(3)],pest or weed control at 25 ppm,Plutella xylostella [2],100%
same,pest or weed control at 12.5 ppm,Plutella xylostella [4],100%
CCN(C(=O)NC(=O)c1c(F)cccc1F)c1ccc(SC(F)(F)F)cc1F [(4)],pest or weed control at 25 ppm,Plutella xylostella [2],100%
same,pest or weed control at 50 ppm,[3],100%
same,pest or weed control at 50 ppm,Plutella xylostella [4],100%
CN(C(=O)NC(=O)c1c(F)cccc1F)c1ccc(S(=O)(=O)C(F)(F)F)cc1F [(20)],pest or weed control at 5 ppm,"Plutella xylostella [2]; test concentration of 5 ppm, read-out: dead pest rate",100%
same,pest or weed control at 12.5 ppm,Plutella xylostella [4],100%
Cc1cc(SC(F)F)ccc1N(C)C(=O)NC(=O)c1c(F)cccc1F [(35)],pest or weed control at 50 ppm,Plutella xylostella [4],100%
CN(C(=O)N(CCOc1ccccc1)C(=O)c1c(F)cccc1F)c1ccc(SC(F)(F)F)cc1F [(62)],pest or weed control at 25 ppm,Plutella xylostella [2],100%
same,pest or weed control at 50 ppm,[3],100%
same,pest or weed control at 200 ppm,Plutella xylostella [4],100%
CN(C(=O)N(CC1CCCO1)C(=O)c1c(F)cccc1F)c1ccc(SC(F)(F)F)cc1F (stereo not shown) [(63)],pest or weed control at 500 ppm,Plutella xylostella [1],100%
CN(C(=O)N(Cc1ccco1)C(=O)c1c(F)cccc1F)c1ccc(SC(F)(F)F)cc1F [(64)],pest or weed control at 500 ppm,Plutella xylostella [1],100%
CN(C(=O)N(CC[S+](C)[O-])C(=O)c1c(F)cccc1F)c1ccc(SC(F)(F)F)cc1F (stereo not shown) [(74)],control value,Plutella xylostella [1],100%
COC(=O)CN(C(=O)c1c(F)cccc1F)C(=O)N(C)c1ccc(SC(F)(F)F)cc1F [(81)],pest or weed control at 50 ppm,[3],100%
same,pest or weed control at 200 ppm,Plutella xylostella [4],100%
CN(C(=O)NC(=O)c1c(F)cccc1F)c1ccc(C(=O)OC(C)(C)C)cc1 [(82)],control value,Plutella xylostella [1],100%
same,dead pest rate,Spondoptela litura; 500 ppm,100%
C=CCSc1ccc(N(C)C(=O)NC(=O)c2c(F)cccc2F)c(F)c1 [(83)],pest or weed control at 500 ppm,Plutella xylostella [1],100%
same,pest or weed control at 500 ppm,Spondoptela litura,100%
C#CCSc1ccc(N(C)C(=O)NC(=O)c2c(F)cccc2F)c(F)c1 [(89)],pest or weed control at 500 ppm,Plutella xylostella [1],100%
CN(C(=O)NC(=O)c1c(F)cccc1F)c1cc(Cl)c(SC(F)(F)C(F)F)c(Cl)c1 [(93)],pest or weed control at 500 ppm,Plutella xylostella [1],100%
same,pest or weed control at 500 ppm,Spondoptela litura,100%
same,dead pest rate,Plutella xylostella [5],90%
CN(C(=O)N(C(=O)OCc1ccccc1)C(=O)c1c(F)cccc1F)c1ccc(SC(F)(F)F)cc1F [(97)],pest or weed control at 500 ppm,Plutella xylostella [1],100%
same,pest or weed control at 500 ppm,Spondoptela litura,100%
same,pest or weed control at 50 ppm,[3],100%
CN(C(=O)N(C(=O)c1c(F)cccc1F)S(=O)(=O)c1ccccc1)c1ccc(SC(F)(F)F)cc1F [(99)],pest or weed control at 500 ppm,Plutella xylostella [1],100%
CN(C(=O)NC(=O)c1c(F)cccc1F)c1cc(F)c(SC(F)(F)F)cc1F [(100)],pest or weed control at 200 ppm,Plutella xylostella [4],100%
CN(C(=O)c1c(F)cccc1F)C(=O)N(C)c1cc(F)c(SC(F)(F)F)cc1F [(101)],pest or weed control at 50 ppm,[3],100%
same,pest or weed control at 200 ppm,Plutella xylostella [4],100%
Cc1c(SC(F)F)ccc(N(C)C(=O)NC(=O)c2c(F)cccc2F)c1C [(111)],pest or weed control at 500 ppm,Plutella xylostella [1],100%
same,pest or weed control at 500 ppm,Spondoptela litura,100%
Cc1c(SC(F)F)ccc(N(C)C(=O)N(C)C(=O)c2c(F)cccc2F)c1C [(112)],pest or weed control at 500 ppm,Spondoptela litura,100%
same,pest or weed control at 50 ppm,Plutella xylostella [4],100%
CN(C(=O)N(C(=O)c1c(F)cccc1F)N(C)C)c1ccc(SC(F)(F)F)cc1F [(115)],pest or weed control at 500 ppm,Plutella xylostella [1],100%
same,pest or weed control at 500 ppm,Spondoptela litura,100%
CON(C(=O)c1c(F)cccc1F)C(=O)N(C)c1ccc(SC(F)(F)F)cc1F [(116)],pest or weed control at 500 ppm,Plutella xylostella [1],100%
"O=C(NC(=O)c1c(F)cccc1F)Nc1cc(Cl)c(SC(F)(F)C(F)F)c(Cl)c1 [comparative compound C, reference compound]",dead pest rate,Plutella xylostella [5],20%
"O=C(NC(=O)c1c(F)cccc1F)Nc1ccc(SC(F)(F)C(F)F)cc1 [comparative compound D, reference compound]",dead pest rate,Plutella xylostella [6],20%
